Results reported in ChEMBL document CHEMBL4145649, “Identification of the 4-Position of 3-Alkynyl and 3-Heteroaromatic Substituted Pyridine Methanamines as a Key Modification Site Eliciting Increased Potency and Enhanced Selectivity for Cytochrome P-450 2A6 Inhibition” (J Med Chem, 2018).

Columns and labels:
Cytochrome P450 3A4 = Cytochrome P450 3A4 (Homo sapiens, UniProt P08684); assay: Inhibition of CYP3A4 in human liver microsomes using midazolam as substrate preincubated for 5 mins followed by addition of NADPH-regenerating system and measured after 15 mins by UPLC-MS analysis
Cytochrome P450 2C8 = molecular target: T1, Cytochrome P450 2C8 (Homo sapiens, UniProt P10632); assay: Inhibition of CYP2C8 in human liver microsomes using amodiaquine as substrate preincubated for 5 mins followed by addition of NADPH-regenerating system and measured after 15 mins by UPLC-MS analysis
T1 sequence (P10632 whole entry): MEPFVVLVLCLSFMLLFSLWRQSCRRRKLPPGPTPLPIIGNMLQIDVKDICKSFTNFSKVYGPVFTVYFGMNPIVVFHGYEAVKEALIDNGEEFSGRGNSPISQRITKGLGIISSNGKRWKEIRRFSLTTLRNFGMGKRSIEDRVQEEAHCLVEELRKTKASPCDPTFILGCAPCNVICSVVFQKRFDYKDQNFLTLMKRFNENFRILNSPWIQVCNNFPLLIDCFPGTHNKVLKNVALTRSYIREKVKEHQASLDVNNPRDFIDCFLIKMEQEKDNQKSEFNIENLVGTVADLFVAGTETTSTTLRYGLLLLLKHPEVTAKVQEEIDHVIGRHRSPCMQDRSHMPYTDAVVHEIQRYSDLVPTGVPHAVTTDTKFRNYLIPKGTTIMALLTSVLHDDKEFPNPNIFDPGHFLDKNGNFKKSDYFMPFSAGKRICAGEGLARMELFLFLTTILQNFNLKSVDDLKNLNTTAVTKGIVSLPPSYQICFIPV

Cytochrome P450 2B6 = molecular target: T2, Cytochrome P450 2B6 (Homo sapiens, UniProt P20813); assay: Inhibition of CYP2B6 in human liver microsomes using bupropion as substrate preincubated for 5 mins followed by addition of NADPH-regenerating system and measured after 15 mins by UPLC-MS analysis
T2 sequence (P20813 whole entry): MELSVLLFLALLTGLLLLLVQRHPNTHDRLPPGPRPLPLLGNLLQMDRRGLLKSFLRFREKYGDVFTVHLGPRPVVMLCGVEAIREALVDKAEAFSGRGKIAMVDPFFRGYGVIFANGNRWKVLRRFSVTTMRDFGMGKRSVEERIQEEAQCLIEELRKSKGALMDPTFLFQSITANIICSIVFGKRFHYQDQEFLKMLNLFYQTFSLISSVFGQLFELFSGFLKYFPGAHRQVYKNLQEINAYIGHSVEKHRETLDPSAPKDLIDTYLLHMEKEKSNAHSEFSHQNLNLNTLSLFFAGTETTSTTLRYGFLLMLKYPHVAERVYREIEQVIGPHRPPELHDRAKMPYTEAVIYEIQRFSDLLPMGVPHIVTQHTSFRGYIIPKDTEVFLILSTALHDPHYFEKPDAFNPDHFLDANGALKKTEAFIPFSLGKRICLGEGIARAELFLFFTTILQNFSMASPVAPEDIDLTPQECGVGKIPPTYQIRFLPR

[1] = Half life in human liver microsomes at 10 uM up to 2 hrs at 37 degC in presence of NADPH-regenerating system by UPLC/MS analysis
Cytochrome P450 1A2 = molecular target: T3, Cytochrome P450 1A2 (Homo sapiens, UniProt P05177); assay: Inhibition of CYP1A2 in human liver microsomes using phenacetin as substrate preincubated for 5 mins followed by addition of NADPH-regenerating system and measured after 15 mins by UPLC-MS analysis
T3 sequence (P05177 whole entry): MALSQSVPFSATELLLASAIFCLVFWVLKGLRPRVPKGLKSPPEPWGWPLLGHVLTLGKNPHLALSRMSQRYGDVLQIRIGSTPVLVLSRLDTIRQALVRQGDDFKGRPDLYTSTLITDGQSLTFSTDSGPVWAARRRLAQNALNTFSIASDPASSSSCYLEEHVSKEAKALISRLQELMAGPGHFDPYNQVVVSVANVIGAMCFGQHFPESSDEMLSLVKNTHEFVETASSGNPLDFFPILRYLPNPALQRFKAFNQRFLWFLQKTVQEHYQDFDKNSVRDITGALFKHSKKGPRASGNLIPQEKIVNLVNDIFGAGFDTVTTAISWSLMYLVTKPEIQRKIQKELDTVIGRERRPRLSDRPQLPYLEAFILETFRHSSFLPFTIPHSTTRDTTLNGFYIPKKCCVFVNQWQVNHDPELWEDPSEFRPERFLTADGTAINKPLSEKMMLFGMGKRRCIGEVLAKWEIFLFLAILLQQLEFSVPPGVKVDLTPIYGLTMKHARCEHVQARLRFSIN

Cytochrome P450 2D6 = Cytochrome P450 2D6 (Homo sapiens, UniProt P10635); assay: Inhibition of CYP2D6 in human liver microsomes using dextromethorphan as substrate preincubated for 5 mins followed by addition of NADPH-regenerating system and measured after 15 mins by UPLC-MS analysis
Cytochrome P450 2E1 = Cytochrome P450 2E1 (Homo sapiens, UniProt P05181); assay: Inhibition of CYP2E1 in human liver microsomes using chlorzoxazone as substrate preincubated for 5 mins followed by addition of NADPH-regenerating system and measured after 15 mins by UPLC-MS analysis
Cytochrome P450 2C19 = Cytochrome P450 2C19 (Homo sapiens, UniProt P33261); assay: Inhibition of CYP2C19 in human liver microsomes using omeprazole as substrate preincubated for 5 mins followed by addition of NADPH-regenerating system and measured after 15 mins by UPLC-MS analysis
Cytochrome P450 2C9 = Cytochrome P450 2C9 (Homo sapiens, UniProt P11712); assay: Inhibition of CYP2C9 in human liver microsomes using diclofenac as substrate preincubated for 5 mins followed by addition of NADPH-regenerating system and measured after 15 mins by UPLC-MS analysis
Cytochrome P450 2A6 = molecular target: T4, Cytochrome P450 2A6 (Homo sapiens, UniProt P11509); assay: Inhibition of CYP2A6 in human liver microsomes using coumarin as substrate preincubated for 5 mins followed by addition of NADPH-regenerating system and measured after 15 mins by UPLC-MS analysis
T4 sequence (P11509 whole entry): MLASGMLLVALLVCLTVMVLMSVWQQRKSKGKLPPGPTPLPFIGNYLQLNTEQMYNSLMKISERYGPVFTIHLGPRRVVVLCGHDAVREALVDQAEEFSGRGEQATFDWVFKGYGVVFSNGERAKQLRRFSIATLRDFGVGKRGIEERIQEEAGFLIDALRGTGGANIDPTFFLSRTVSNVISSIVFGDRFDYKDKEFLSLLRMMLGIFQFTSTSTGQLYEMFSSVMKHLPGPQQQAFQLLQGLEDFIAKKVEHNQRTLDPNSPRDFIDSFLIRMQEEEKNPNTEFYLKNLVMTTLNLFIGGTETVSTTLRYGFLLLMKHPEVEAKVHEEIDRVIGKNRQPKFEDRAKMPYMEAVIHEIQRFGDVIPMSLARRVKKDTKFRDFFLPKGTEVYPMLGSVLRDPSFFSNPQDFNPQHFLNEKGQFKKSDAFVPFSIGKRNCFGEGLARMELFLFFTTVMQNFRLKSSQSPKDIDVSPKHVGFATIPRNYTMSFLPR

Chain of Cytochrome P450 2D6 (P10635 whole entry): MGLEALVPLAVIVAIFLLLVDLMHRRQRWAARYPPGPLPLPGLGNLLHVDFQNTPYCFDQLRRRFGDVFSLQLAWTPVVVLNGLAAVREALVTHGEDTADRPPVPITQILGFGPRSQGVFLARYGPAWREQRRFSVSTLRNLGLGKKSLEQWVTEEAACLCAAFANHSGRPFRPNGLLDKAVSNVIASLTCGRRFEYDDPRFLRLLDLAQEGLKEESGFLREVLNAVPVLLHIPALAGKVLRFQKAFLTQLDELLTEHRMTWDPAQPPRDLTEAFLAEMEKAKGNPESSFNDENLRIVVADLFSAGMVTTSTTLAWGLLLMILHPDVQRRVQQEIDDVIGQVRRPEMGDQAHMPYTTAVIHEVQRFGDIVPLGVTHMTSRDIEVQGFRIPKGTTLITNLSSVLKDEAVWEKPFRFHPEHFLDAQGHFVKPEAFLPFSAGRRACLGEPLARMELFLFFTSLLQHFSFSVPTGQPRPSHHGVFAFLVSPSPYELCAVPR
Chain of Cytochrome P450 2C19 (P33261 whole entry): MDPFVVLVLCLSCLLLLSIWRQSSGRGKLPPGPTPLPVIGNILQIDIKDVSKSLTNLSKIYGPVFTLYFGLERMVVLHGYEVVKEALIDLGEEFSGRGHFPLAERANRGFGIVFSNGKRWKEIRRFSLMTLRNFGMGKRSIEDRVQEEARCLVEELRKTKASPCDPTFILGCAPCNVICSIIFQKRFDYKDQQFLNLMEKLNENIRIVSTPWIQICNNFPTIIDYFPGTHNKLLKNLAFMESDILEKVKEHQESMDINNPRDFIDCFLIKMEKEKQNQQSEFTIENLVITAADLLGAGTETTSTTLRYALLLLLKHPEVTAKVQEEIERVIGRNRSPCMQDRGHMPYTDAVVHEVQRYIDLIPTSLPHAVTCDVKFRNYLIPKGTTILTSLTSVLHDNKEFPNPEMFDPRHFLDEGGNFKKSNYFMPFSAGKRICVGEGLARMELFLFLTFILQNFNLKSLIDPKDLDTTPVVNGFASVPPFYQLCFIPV
Chain of Cytochrome P450 2E1 (P05181 whole entry): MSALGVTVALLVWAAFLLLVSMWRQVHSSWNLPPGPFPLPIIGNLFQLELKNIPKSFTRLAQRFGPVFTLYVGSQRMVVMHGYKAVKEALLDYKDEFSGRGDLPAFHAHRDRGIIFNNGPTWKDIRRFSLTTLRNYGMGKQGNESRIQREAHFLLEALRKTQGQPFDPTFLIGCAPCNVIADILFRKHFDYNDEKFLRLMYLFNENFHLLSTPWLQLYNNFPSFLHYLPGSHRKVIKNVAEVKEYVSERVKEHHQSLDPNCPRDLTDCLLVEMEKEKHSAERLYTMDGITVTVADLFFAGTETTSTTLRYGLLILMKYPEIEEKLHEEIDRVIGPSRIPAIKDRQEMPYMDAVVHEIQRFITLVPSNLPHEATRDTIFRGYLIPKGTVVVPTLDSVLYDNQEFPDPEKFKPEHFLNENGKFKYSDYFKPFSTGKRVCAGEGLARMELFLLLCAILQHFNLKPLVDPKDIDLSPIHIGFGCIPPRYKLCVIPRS
Chain of Cytochrome P450 2C9 (P11712 whole entry): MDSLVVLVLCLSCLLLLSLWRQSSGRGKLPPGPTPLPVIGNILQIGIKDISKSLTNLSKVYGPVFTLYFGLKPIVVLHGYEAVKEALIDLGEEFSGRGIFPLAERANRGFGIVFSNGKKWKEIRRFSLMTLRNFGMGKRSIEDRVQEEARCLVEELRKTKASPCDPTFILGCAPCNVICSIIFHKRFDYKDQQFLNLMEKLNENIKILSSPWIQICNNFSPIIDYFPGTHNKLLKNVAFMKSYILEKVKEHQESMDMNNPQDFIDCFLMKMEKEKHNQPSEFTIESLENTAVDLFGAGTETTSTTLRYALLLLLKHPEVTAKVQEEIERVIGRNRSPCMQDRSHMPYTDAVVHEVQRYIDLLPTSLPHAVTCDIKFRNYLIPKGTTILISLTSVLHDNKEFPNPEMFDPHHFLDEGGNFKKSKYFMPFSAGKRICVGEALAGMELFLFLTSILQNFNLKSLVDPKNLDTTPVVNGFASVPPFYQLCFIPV
Chain of Cytochrome P450 3A4 (P08684 whole entry): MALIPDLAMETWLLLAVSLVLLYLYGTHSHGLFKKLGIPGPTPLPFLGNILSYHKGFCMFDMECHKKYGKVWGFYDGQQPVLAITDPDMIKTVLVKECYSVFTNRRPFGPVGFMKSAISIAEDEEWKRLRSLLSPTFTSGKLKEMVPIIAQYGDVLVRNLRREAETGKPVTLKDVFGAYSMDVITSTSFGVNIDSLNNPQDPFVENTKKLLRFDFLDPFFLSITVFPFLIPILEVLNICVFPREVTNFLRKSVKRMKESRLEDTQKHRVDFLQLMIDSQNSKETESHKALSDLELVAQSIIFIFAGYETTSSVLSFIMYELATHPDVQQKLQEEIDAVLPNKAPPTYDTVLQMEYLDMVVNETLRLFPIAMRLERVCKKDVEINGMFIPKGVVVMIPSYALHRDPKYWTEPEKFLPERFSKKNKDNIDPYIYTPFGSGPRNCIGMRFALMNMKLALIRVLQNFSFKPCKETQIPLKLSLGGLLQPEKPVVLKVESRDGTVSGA

Cl.Cl.Cl.NCC#Cc1cnccc1-c1ccncc1
IC50 (Cytochrome P450 3A4): > 25 µM | IC50 (Cytochrome P450 2C8): > 50 µM | IC50 (Cytochrome P450 2B6): > 25 µM | t1/2 [1]: 36 min | IC50 (Cytochrome P450 1A2): 21 µM | IC50 (Cytochrome P450 2D6): 12 µM | IC50 (Cytochrome P450 2E1): > 25 µM

NCC#Cc1cnccc1-c1cncnc1
IC50 (Cytochrome P450 3A4): > 25 µM | IC50 (Cytochrome P450 2C8): > 50 µM | IC50 (Cytochrome P450 2B6): > 25 µM | IC50 (Cytochrome P450 1A2): > 25 µM | IC50 (Cytochrome P450 2D6): > 25 µM | IC50 (Cytochrome P450 2E1): > 25 µM

NCC#Cc1cnccc1-c1ccco1
IC50 (Cytochrome P450 2C19): 3.7 µM | IC50 (Cytochrome P450 3A4): 11 µM | IC50 (Cytochrome P450 2C8): 7.5 µM | IC50 (Cytochrome P450 2B6): 5 µM | IC50 (Cytochrome P450 1A2): 1.4 µM | IC50 (Cytochrome P450 2C9): 2.8 µM | IC50 (Cytochrome P450 2D6): 3.9 µM | IC50 (Cytochrome P450 2E1): 1.9 µM

Cl.Cl.Cl.Cl.NCc1ccc(-c2cnccc2-c2cncnc2)s1
IC50 (Cytochrome P450 3A4): 39 µM | IC50 (Cytochrome P450 2C8): > 25 µM | IC50 (Cytochrome P450 2B6): 40 µM | t1/2 [1]: > 120 min | IC50 (Cytochrome P450 1A2): 25 µM | IC50 (Cytochrome P450 2E1): > 50 µM

Cl.Cl.Cl.NCc1ccc(-c2cnccc2-c2cccnc2)o1
IC50 (Cytochrome P450 2C19): 13 µM | IC50 (Cytochrome P450 3A4): 90 µM | IC50 (Cytochrome P450 2C8): > 25 µM | IC50 (Cytochrome P450 2B6): 7.8 µM | t1/2 [1]: > 120 min | IC50 (Cytochrome P450 1A2): 4.4 µM | IC50 (Cytochrome P450 2C9): 28 µM | IC50 (Cytochrome P450 2E1): 31 µM

COc1ccncc1C#CCN
IC50 (Cytochrome P450 2C19): 9.3 µM | IC50 (Cytochrome P450 3A4): > 50 µM | IC50 (Cytochrome P450 2C8): > 50 µM | IC50 (Cytochrome P450 2B6): 11 µM | IC50 (Cytochrome P450 1A2): 25 µM | IC50 (Cytochrome P450 2C9): 28 µM | IC50 (Cytochrome P450 2D6): > 50 µM | IC50 (Cytochrome P450 2E1): 18 µM

Cl.Cl.Cl.Cl.NCc1ccc(-c2cnccc2-c2cncnc2)o1
IC50 (Cytochrome P450 2C19): > 25 µM | IC50 (Cytochrome P450 3A4): > 25 µM | IC50 (Cytochrome P450 2C8): > 50 µM | IC50 (Cytochrome P450 2B6): > 25 µM | t1/2 [1]: > 120 min | IC50 (Cytochrome P450 1A2): 7.6 µM | IC50 (Cytochrome P450 2C9): > 25 µM | IC50 (Cytochrome P450 2E1): > 50 µM

NCc1ccc(-c2cnccc2-c2ccco2)s1
IC50 (Cytochrome P450 2C19): 1.4 µM | IC50 (Cytochrome P450 3A4): 7 µM | IC50 (Cytochrome P450 2C8): 3.8 µM | IC50 (Cytochrome P450 2B6): 0.073 µM | IC50 (Cytochrome P450 1A2): 0.2 µM | IC50 (Cytochrome P450 2C9): 4.4 µM | IC50 (Cytochrome P450 2D6): > 50 µM | IC50 (Cytochrome P450 2E1): 3.1 µM

NCC#Cc1cncnc1
IC50 (Cytochrome P450 2A6): > 10 µM

Cl.Cl.Cl.NCc1ccc(-c2cnccc2-c2ccncc2)s1
IC50 (Cytochrome P450 3A4): 214 µM | IC50 (Cytochrome P450 2C8): > 25 µM | IC50 (Cytochrome P450 2B6): 3.5 µM | t1/2 [1]: 32 min | IC50 (Cytochrome P450 1A2): 4.8 µM | IC50 (Cytochrome P450 2E1): 31 µM

Cc1cncc(C#CCN)c1
IC50 (Cytochrome P450 2A6): > 10 µM

Cc1ccncc1C#CCN.Cl.Cl
IC50 (Cytochrome P450 2C19): 8 µM | IC50 (Cytochrome P450 3A4): 5.6 µM | IC50 (Cytochrome P450 2C8): 8.6 µM | IC50 (Cytochrome P450 2B6): 20 µM | t1/2 [1]: 8.4 min | IC50 (Cytochrome P450 1A2): 11 µM | IC50 (Cytochrome P450 2C9): 36 µM | IC50 (Cytochrome P450 2D6): 2.4 µM | IC50 (Cytochrome P450 2E1): 19 µM

CCc1ccncc1C#CCN.Cl.Cl
IC50 (Cytochrome P450 3A4): > 50 µM | IC50 (Cytochrome P450 2C8): 25 µM | IC50 (Cytochrome P450 2B6): 19 µM | t1/2 [1]: 9.8 min | IC50 (Cytochrome P450 1A2): > 50 µM | IC50 (Cytochrome P450 2D6): 6.6 µM | IC50 (Cytochrome P450 2E1): 15 µM
